Assay results: patent US8946203B2, “Benzodioxane inhibitors of leukotriene production” (Boehringer Ingelheim International GmbH, priority 2012, dated 2015)
pIC50: −log10 of the molar value. Like-named read-outs stand apart in the source and are kept apart here.

Columns and labels:
[1] = test system: synthesis of LTB4 in human whole blood; assay: human whole blood (HWB) assay, LTB4 production inhibition after calcimycin stimulation; type: cell-based; details: heparinized human whole blood, calcimycin 20 μM, plasma LTB4 by HTRF
In short: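 Plasma LTB4, quantified by HTRF immunoassay, is the read-out after calcimycin challenge (20 μM final, 30 min, 37 °C) of heparinized whole blood that had been pretreated with compound for 15 min at 37 °C; values given as IC50.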

human LTA4 hydrolase = target: T1, human LTA4 hydrolase (Homo sapiens, UniProt P09960); assay: LTA4H Enzyme assay (cleavage of Arg-AMC, fluorescence); type: biochemical
T1 sequence (P09960 1-611): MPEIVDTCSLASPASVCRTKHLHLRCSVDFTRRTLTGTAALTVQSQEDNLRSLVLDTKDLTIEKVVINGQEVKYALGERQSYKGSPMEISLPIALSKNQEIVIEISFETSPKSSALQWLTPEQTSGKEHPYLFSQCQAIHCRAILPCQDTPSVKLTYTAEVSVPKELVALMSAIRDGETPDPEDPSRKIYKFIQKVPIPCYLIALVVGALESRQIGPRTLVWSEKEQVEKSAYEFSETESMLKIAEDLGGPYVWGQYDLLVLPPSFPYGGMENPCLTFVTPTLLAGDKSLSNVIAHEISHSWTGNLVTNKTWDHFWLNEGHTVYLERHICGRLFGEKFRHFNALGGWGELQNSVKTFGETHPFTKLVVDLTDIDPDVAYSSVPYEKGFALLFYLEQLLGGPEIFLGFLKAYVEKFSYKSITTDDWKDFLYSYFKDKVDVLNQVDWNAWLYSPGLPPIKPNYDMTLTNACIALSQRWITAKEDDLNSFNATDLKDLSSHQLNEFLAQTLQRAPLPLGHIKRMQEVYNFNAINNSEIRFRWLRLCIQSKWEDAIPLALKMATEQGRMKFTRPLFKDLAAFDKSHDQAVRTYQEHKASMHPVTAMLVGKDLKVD
In short: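 Aminomethylcoumarin release measured fluorimetrically (380/460 nm) after 1 h at room temperature. Reaction: 1 nM final enzyme, 50 μM final Arg-AMC and compound in Tris-HCl pH 7.5 with 100 mM KCl and 0.5% BSA.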

[2] = LTA4H Enzyme 1 nM, Arg-AMC substrate 50 μM, room temperature 1 h, fluorescence, read-out: IC50 values of LTA4H Enzyme assay

Compound | pIC50 [1] | pIC50 (human LTA4 hydrolase; [2]) | pIC50 (human LTA4 hydrolase)
CC(=O)N1CC2CCC(C1)N2Cc1ccc([C@H]2COc3cccnc3O2)cc1 [Example 271, 1-{8-[(S)-4-(2,3-Dihydro-[1,4]dioxino[2,3-b]pyridin-3-yl)-benzyl]-3,8-diaza-bicyclo[3.2.1]oct-3-yl}-ethanone] | 6.96 | 9.19 | 
NC(=O)N1CC2CN(Cc3ccc([C@H]4COc5cccnc5O4)cc3)CC2C1 (stereo partly drawn) [Example 272, 5-[(S)-4-(2,3-Dihydro-[1,4]dioxino[2,3-b]pyridin-3-yl)-benzyl]-hexahydro-pyrrolo[3,4-c]pyrrole-2-carboxylic acid amide] | 7.15 | 10.05 | 
NC(=O)N[C@@H]1C[C@H]2CC[C@@H](C1)N2Cc1ccc([C@H]2COc3cccnc3O2)cc1 [Example 273, {(exo)-8-[(S)-4-(2,3-Dihydro-[1,4]dioxino[2,3-b]pyridin-3-yl)-benzyl]-8-aza-bicyclo[3.2.1]oct-3-yl}-urea] | 6.96 |  | 9.80
NC(=O)COC1CCN(Cc2ccc([C@H]3COc4cccnc4O3)cc2)CC1 [Example 274, 2-{1-[(S)-4-(2,3-Dihydro-[1,4]dioxino[2,3-b]pyridin-3-yl)-benzyl]-piperidin-4-yloxy}-acetamide] | 7.00 | 9.82 | 
O=S1(=O)CCCN(Cc2ccc([C@H]3COc4cccnc4O3)cc2)CC1 [Example 275, (S)-3-[4-(1,1-Dioxo-1lambda6-[1,4]thiazepan-4-ylmethyl)-phenyl]-2,3-dihydro-[1,4]dioxino[2,3-b]pyridine] | 6.77 | 9.15 | 
CC1(O)CCN(Cc2ccc([C@H]3COc4cccnc4O3)cc2)CC1 [Example 276, 1-[(S)-4-(2,3-Dihydro-[1,4]dioxino[2,3-b]pyridin-3-yl)-benzyl]-4-methyl-piperidin-4-ol] | 6.62 | 8.92 | 
O=C(CO)N1C[C@@H]2C[C@H]1CN2Cc1ccc([C@H]2COc3cccnc3O2)cc1 [Example 277, 1-{(1S,4S)-5-[(S)-4-(2,3-Dihydro-[1,4]dioxino[2,3-b]pyridin-3-yl)-benzyl]-2,5-diaza-bicyclo[2.2.1]hept-2-yl}-2-hydroxy-ethanone] | 7.19 | 9.52 | 
CC(=O)N[C@H]1C[C@H]2CC[C@@H](C1)N2Cc1ccc([C@H]2COc3cccnc3O2)cc1 [Example 278, N-{(endo)-8-[(S)-4-(2,3-Dihydro-[1,4]dioxino[2,3-b]pyridin-3-yl)-benzyl]-8-aza-bicyclo[3.2.1]oct-3-yl}-acetamide] | 7.14 | 9.59 | 
CC(=O)NCC1CCN(Cc2ccc([C@H]3COc4cccnc4O3)cc2)CC1 [Example 279, N-{1-[(S)-4-(2,3-Dihydro-[1,4]dioxino[2,3-b]pyridin-3-yl)-benzyl]-piperidin-4-ylmethyl}-acetamide] | 7.03 | 9.47 | 
CN(Cc1ccc([C@H]2COc3cccnc3O2)cc1)C1CCS(=O)(=O)C1 (stereo partly drawn) [Example 280, [(S)-4-(2,3-Dihydro-[1,4]dioxino[2,3-b]pyridin-3-yl)-benzyl]-(1,1-dioxo-tetrahydro-1lambda-6-thiophen-3-yl)-methyl-amine] | 6.64 | 8.62 | 
O=C(CO)N1C[C@@H]2CC[C@H]1CN2Cc1ccc([C@H]2COc3cccnc3O2)cc1 [Example 281, 1-{(1S,4S)-5-[(S)-4-(2,3-Dihydro-[1,4]dioxino[2,3-b]pyridin-3-yl)-benzyl]-2,5-diaza-bicyclo[2.2.2]oct-2-yl}-2-hydroxy-ethanone] | 7.43 | 9.77 | 
NC(=O)N1CC2(CCN(Cc3ccc([C@H]4COc5cccnc5O4)cc3)CC2)c2ccccc21 [Example 282] | 7.21 |  | 9.77
NC(=O)NCC1CCN(Cc2ccc([C@H]3COc4cccnc4O3)cc2)CC1 [Example 283, {1-[(S)-4-(2,3-Dihydro-[1,4]dioxino[2,3-b]pyridin-3-yl)-benzyl]-piperidin-4-ylmethyl}-urea] | 6.27 | 9.44 | 
N#CCN1CCN(Cc2ccc([C@H]3COc4cccnc4O3)cc2)CC1 [Example 284, {4-[(S)-4-(2,3-Dihydro-[1,4]dioxino[2,3-b]pyridin-3-yl)-benzyl]-piperazin-1-yl}-acetonitrile] | 6.54 | 8.41 | 
O=C1OC[C@H]2CN(Cc3ccc([C@H]4COc5cccnc5O4)cc3)CCN12 [Example 285, (R)-7-[(S)-4-(2,3-Dihydro-[1,4]dioxino[2,3-b]pyridin-3-yl)-benzyl]-hexahydro-oxazolo[3,4-a]pyrazin-3-one] | 6.70 | 9.00 | 
O=C(C1CCN(Cc2ccc([C@H]3COc4cccnc4O3)cc2)CC1)N1CC(O)C1 [Example 286, {1-[(S)-4-(2,3-Dihydro-[1,4]dioxino[2,3-b]pyridin-3-yl)-benzyl]-piperidin-4-yl}-(3-hydroxy-azetidin-1-yl)-methanone] | 6.72 | 9.46 | 
O=C(NC[C@@H]1CCCO1)C1CCN(Cc2ccc([C@H]3COc4cccnc4O3)cc2)CC1 [Example 287, 1-[(S)-4-(2,3-Dihydro-[1,4]dioxino[2,3-b]pyridin-3-yl)-benzyl]-piperidine-4-carboxylic acid [(S)-1-(tetrahydro-furan-2-yl)methyl]-amide] | 7.26 | 9.72 | 
CC(=O)NCCC(=O)N1CCN(Cc2ccc([C@H]3COc4cccnc4O3)cc2)CC1 [Example 288, N-[3-[4-[[4-[(3S)-2,3-dihydro-[1,4]dioxino[2,3-b]pyridin-3-yl]phenyl]methyl]piperazin-1-yl]-3-oxo-propyl]acetamide] | 6.82 | 9.06 | 
O=C(CN1CCCC1=O)NC1CCN(Cc2ccc([C@H]3COc4cccnc4O3)cc2)CC1 [Example 289, N-[1-[[4-[(3S)-2,3-dihydro-[1,4]dioxino[2,3-b]pyridin-3-yl]phenyl]methyl]-4-piperidyl]-2-(2-oxopyrrolidin-1-yl)acetamide] | 6.77 | 9.40 | 
O=C(NC1CCN(Cc2ccc([C@H]3COc4cccnc4O3)cc2)CC1)C1CCOCC1 [Example 290, N-[1-[[4-[(3S)-2,3-dihydro-[1,4]dioxino[2,3-b]pyridin-3-yl]phenyl]methyl]-4-piperidyl]tetrahydropyran-4-carboxamide] | 7.32 | 9.70 | 
O=C1OCCCN1C1CCN(Cc2ccc([C@H]3COc4cccnc4O3)cc2)CC1 [Example 291, 3-{1-[(S)-4-(2,3-Dihydro-[1,4]dioxino[2,3-b]pyridin-3-yl)-benzyl]-piperidin-4-yl}-[1,3]oxazinan-2-one] | 7.25 | 9.72 | 
CC(=O)N1C[C@@H]2C[C@H]1CN2Cc1ccc([C@H]2COc3cccnc3O2)cc1 [Example 292, 1-{(1S,4S)-5-[(S)-4-(2,3-Dihydro-[1,4]dioxino[2,3-b]pyridin-3-yl)-benzyl]-2,5-diaza-bicyclo[2.2.1]hept-2-yl}-ethanone] | 7.62 | 9.80 | 
c1cncc(OC2CCN(Cc3ccc([C@H]4COc5cccnc5O4)cc3)CC2)c1 [Example 293, (S)-3-{4-[4-(Pyridin-3-yloxy)-piperidin-1-ylmethyl]-phenyl}-2,3-dihydro-[1,4]dioxino[2,3-b]pyridine] | 7.28 | 9.62 | 
O=C(O)C1(c2ccccc2)CCN(Cc2ccc([C@H]3COc4cccnc4O3)cc2)CC1 [Example 294, 1-[(S)-4-(2,3-Dihydro-[1,4]dioxino[2,3-b]pyridin-3-yl)-benzyl]-4-phenyl-piperidine-4-carboxylic acid] | 5.89 |  | 8.24
[O-][S+]1CCN(Cc2ccc([C@H]3COc4cccnc4O3)cc2)CC1 [Example 295, (S)-3-[4-(1-Oxo-1lambda4-thiomorpholin-4-ylmethyl)-phenyl]-2,3-dihydro-[1,4]dioxino[2,3-b]pyridine] | 6.92 | 9.10 | 
O=C1OC[C@@H]2CN(Cc3ccc([C@H]4COc5cccnc5O4)cc3)CCN12 [Example 296, (S)-7-[(S)-4-(2,3-Dihydro-[1,4]dioxino[2,3-b]pyridin-3-yl)-benzyl]-hexahydro-oxazolo[3,4-a]pyrazin-3-one] | 7.05 | 9.49 | 
